Results from article PMC12679550 (ACS Chemical Neuroscience, 2025).
Like-named read-outs stand apart in the source and are kept apart here.

Columns and labels:
serotonin transporter = target: T1, serotonin transporter (Homo sapiens, UniProt P31645); experiment: Eurofins Cerep radioligand binding screen; conditions: 10 μM
T1 construct: Eurofins Cerep; host or cells: cell membrane homogenates
Experimental: (§1) The compounds were screened at each target once, in duplicate, at 100 nM and 10 μM. […] The assay was valid if the reliability criteria, K i or IC50 values within 1/2 Log of historical values, were met. Radioligand binding assay methods were as previously described with only minor modifications , (see table in Supplementary Figure S4 for radioligands, protein sources, and assay test conditions). Briefly, cell membrane homogenates were incubated with either an antagonist or agonist radioligand in the absence or presence of the test compound in a buffer. A specific unlabeled agonist or antagonist at the target determined nonspecific binding. Following incubation, the samples were filtered rapidly under vacuum through glass fiber filters presoaked in a buffer and rinsed several times with an ice-cold buffer using a 48-sample or 96-sample cell harvester. Using a scintillation cocktail, the filters were counted for radioactivity in a scintillation counter. Compound binding was calculated as a percent inhibition of the binding of the radioactively labeled ligand specific for each target. Preparatory methods for enzyme inhibition assays were similar to radioligand binding assays. These assays involved using a known substrate, stimulus, and/or tracer, and detection methods included LANCE, fluorimetry, photometry, luminescence, or scintillation counting (see table in Supplementary Figure S4). Results of the screening assays showing an inhibition or stimulation higher than 50% were designated “hits” and considered to represent significant effects of the test compounds.

[1] = system: voltage-gated sodium channels; experiment: Eurofins Cerep radioligand binding screen; conditions: 10 μM
Experimental: as §1

α1DR = target: T2, α1DR (Homo sapiens, UniProt P25100); experiment: Eurofins Cerep radioligand binding screen; conditions: 10 μM
T2 construct: Eurofins Cerep; host or cells: cell membrane homogenates
Experimental: as §1

α2BR = target: T3, α2BR (Homo sapiens, UniProt P18089); experiment: Eurofins Cerep radioligand binding screen; conditions: 10 μM; also previously reported
T3 construct: Eurofins Cerep; host or cells: cell membrane homogenates
Experimental: as §1

COX2 = target: T4, COX2 (Homo sapiens, UniProt P35354); experiment: Eurofins Cerep enzyme inhibition screen; format: biochemical; conditions: 10 μM
T4 construct: Eurofins Cerep
Experimental: (§2) The compounds were screened at each target once, in duplicate, at 100 nM and 10 μM. […] The assay was valid if the reliability criteria, K i or IC50 values within 1/2 Log of historical values, were met. Radioligand binding assay methods were as previously described with only minor modifications , (see table in Supplementary Figure S4 for radioligands, protein sources, and assay test conditions). Briefly, cell membrane homogenates were incubated with either an antagonist or agonist radioligand in the absence or presence of the test compound in a buffer. A specific unlabeled agonist or antagonist at the target determined nonspecific binding. Following incubation, the samples were filtered rapidly under vacuum through glass fiber filters presoaked in a buffer and rinsed several times with an ice-cold buffer using a 48-sample or 96-sample cell harvester. Using a scintillation cocktail, the filters were counted for radioactivity in a scintillation counter. Compound binding was calculated as a percent inhibition of the binding of the radioactively labeled ligand specific for each target. Preparatory methods for enzyme inhibition assays were similar to radioligand binding assays. These assays involved using a known substrate, stimulus, and/or tracer, and detection methods included LANCE, fluorimetry, photometry, luminescence, or scintillation counting (see table in Supplementary Figure S4). […]

α1AR [2] = target: T5, α1AR (Homo sapiens, UniProt P35348); experiment: Eurofins Cerep radioligand binding screen; design: Eurofins Cerep; host or cells: cell membrane homogenates; conditions: 10 μM
T5 sequence (P35348 1-466): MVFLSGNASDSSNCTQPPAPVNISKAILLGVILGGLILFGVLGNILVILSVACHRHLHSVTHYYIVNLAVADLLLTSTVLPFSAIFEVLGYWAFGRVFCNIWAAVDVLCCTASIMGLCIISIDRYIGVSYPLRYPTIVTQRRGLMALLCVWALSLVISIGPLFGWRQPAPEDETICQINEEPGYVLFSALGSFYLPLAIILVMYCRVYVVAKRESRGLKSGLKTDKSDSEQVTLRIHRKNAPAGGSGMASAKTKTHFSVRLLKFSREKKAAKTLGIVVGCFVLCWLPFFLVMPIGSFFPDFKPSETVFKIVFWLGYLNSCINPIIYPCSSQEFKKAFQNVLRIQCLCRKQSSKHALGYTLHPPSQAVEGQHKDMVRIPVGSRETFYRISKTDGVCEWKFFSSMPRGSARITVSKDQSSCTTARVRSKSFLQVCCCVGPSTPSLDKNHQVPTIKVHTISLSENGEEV
Experimental: as §1

α2AR [3] = target: T6, α2AR (Homo sapiens, UniProt P08913); experiment: Eurofins Cerep radioligand binding screen; design: Eurofins Cerep; host or cells: cell membrane homogenates; conditions: 10 μM; also previously reported
T6 sequence (P08913 1-465): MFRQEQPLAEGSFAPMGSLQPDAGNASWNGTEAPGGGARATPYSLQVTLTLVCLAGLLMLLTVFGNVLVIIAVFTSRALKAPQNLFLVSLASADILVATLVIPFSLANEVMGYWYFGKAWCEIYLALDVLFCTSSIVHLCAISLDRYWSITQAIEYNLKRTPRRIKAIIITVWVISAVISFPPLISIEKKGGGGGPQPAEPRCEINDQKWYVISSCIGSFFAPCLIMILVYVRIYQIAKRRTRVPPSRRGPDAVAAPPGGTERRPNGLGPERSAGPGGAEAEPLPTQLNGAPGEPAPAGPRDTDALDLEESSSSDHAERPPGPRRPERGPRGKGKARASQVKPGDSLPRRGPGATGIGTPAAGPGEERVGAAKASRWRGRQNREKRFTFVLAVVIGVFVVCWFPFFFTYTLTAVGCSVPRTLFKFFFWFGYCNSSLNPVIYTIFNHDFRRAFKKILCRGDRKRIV
Experimental: as §1

[4] = system: pERK in HEK293 cells transfected with human α2ARs; experiment: ERK phosphorylation in α2AR-transfected HEK293 cells; format: cell-based; conditions: 1 μM, 5 min
Experimental: (§3) Cells were serum-starved for 75 min and treated with ligands in 1 mL of fresh DMEM in the absence of serum as described in the figure legends. Cells were washed three times with ice-cold phosphate-buffered saline, lysed on ice in Radio-Immunoprecipitation Assay buffer, centrifuged to clarify the supernatant, normalized to protein concentration, and boiled in Laemmli sample buffer. Following sodium dodecyl sulfate–polyacrylamide gel electrophoresis, gels were transferred, blocked in 5% BSA and incubated with 1:1000 rabbit phospho-ERK1/2 (#9101, Cell Signaling Technology, Danvers, MA) and imaged with enhanced chemiluminescence (ECL). Blots were stripped and reprobed with rabbit ERK1/2 (#9102, Cell Signaling Technology) antibody and imaged with ECL to assess protein loading.

[5] = system: pERK in nontransfected HEK293 cells; experiment: ERK phosphorylation in nontransfected, knockout and antagonist-cotreated HEK293 cells; format: cell-based, human; conditions: for pERK-stimulating effect with 100 nM atipamezole cotreatment / pERK-stimulating effect with 100 nM prazosin cotreatment: HEK293; for pERK-stimulating effect with 100 nM prazosin cotreatment: CLON and ISO 1 μM, mitragynine 1 μM; for pERK, nontransfected HEK293: concentration not given
Experimental: as §3

α1AR [6] = target: T5, α1AR; experiment: cell-based
α1BR = target: T7, α1BR (Homo sapiens, UniProt P35368); experiment: Eurofins Cerep radioligand binding screen; conditions: 10 μM
T7 construct: Eurofins Cerep; host or cells: cell membrane homogenates
Experimental: as §1

δ-opioid receptors = target: T8, δ-opioid receptors (Homo sapiens, UniProt P41143); experiment: Eurofins Cerep radioligand binding screen; conditions: 10 μM
T8 construct: Eurofins Cerep; host or cells: cell membrane homogenates
Experimental: as §1

κ-opioid receptors = target: T9, κ-opioid receptors (Homo sapiens, UniProt P41145); experiment: Eurofins Cerep radioligand binding screen; conditions: 10 μM
T9 construct: Eurofins Cerep; host or cells: cell membrane homogenates
Experimental: as §1

μ-opioid receptors = target: T10, μ-opioid receptors (Homo sapiens, UniProt P35372); experiment: Eurofins Cerep radioligand binding screen; conditions: 10 μM
T10 construct: Eurofins Cerep; host or cells: cell membrane homogenates
Experimental: as §1

any enzyme tested = experiment: Eurofins Cerep enzyme inhibition screen, all enzymes tested; format: biochemical; conditions: 10 μM
Experimental: as §2

human α2Rs = conditions: in vitro, literature, cited from earlier work
human α1Rs = conditions: in vitro, literature, cited from earlier work
β1 and β2 adrenoceptors = conditions: in vitro; literature; read-out: Affinity (Kd) at β1 and β2 adrenoceptors; cited from earlier work
α2AR [7] = target: T6, α2AR; conditions: α2AR-expressing CHO-K1 cells
α2AR [8] = target: T6, α2AR; conditions: agonist mode; CHO-K1 cells
rat α2AR [9] = target: T11, rat α2AR (Rattus norvegicus, UniProt P22909); conditions: agonist mode; CHO-K1 cells
T11 sequence (P22909 1-465): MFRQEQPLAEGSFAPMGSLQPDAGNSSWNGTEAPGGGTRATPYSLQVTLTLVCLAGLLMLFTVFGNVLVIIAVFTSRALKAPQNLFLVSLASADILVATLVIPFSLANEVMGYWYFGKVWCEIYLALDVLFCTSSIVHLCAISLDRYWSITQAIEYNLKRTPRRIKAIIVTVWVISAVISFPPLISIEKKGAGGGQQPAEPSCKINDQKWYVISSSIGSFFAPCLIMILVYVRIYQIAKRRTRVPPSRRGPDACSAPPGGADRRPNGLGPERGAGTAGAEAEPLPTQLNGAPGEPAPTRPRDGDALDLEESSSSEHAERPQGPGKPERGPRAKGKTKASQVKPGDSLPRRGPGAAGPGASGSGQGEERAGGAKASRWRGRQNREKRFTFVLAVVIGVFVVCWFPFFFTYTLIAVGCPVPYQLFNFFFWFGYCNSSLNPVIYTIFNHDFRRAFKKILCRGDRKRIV

rat α2AR [10] = target: T11, rat α2AR; conditions: agonist mode; HEK293 cells; Figure S2
α2AR [11] = target: T6, α2AR; conditions: data not shown
α1A and α1BR = conditions: read-out: EC50, α1A and α1BR-pERK; a recent report; cited from earlier work
α2AR [12] = target: T6, α2AR; experiment: cell-based
[13] = HEK293, read-out: Emax as percent of clonidine's maximum response, α11
[14] = HEK293, read-out: Emax as percent of clonidine's maximum response, αq

T2 sequence (P25100 whole entry): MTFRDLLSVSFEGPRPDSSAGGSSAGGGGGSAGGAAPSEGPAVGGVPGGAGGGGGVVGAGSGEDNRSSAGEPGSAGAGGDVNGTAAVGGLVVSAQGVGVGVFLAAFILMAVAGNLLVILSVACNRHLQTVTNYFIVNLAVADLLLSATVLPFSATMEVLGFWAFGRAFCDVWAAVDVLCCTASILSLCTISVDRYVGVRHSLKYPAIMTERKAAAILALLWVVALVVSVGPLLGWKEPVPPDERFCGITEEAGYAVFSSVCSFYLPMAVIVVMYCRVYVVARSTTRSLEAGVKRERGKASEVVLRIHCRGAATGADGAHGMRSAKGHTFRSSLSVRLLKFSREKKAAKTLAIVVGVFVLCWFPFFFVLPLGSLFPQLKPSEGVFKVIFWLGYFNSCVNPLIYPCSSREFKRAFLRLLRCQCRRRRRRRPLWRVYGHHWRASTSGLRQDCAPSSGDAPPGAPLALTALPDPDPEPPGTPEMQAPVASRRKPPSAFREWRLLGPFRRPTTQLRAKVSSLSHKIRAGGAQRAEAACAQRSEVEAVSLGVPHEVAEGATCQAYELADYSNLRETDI
T3 sequence (P18089 whole entry): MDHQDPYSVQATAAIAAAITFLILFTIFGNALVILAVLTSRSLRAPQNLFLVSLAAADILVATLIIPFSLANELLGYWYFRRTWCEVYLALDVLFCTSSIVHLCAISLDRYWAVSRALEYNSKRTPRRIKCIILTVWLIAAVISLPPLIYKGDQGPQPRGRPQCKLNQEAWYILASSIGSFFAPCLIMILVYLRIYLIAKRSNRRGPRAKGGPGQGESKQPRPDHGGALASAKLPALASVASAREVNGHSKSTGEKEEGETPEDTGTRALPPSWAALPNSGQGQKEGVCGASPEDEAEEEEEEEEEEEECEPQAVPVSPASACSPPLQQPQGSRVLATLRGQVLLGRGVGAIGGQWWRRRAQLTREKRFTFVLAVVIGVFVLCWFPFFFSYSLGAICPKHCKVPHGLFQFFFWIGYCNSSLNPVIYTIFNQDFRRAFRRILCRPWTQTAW
T8 sequence (P41143 whole entry): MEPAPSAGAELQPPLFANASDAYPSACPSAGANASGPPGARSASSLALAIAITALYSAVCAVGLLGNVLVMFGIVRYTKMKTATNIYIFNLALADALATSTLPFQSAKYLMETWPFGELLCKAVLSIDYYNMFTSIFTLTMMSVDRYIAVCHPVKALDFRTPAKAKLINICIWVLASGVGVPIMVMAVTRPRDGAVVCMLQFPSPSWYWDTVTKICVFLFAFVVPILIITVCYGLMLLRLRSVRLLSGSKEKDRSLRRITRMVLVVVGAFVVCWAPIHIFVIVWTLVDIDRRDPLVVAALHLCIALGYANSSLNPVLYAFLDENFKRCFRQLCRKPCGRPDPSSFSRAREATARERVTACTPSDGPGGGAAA
T7 sequence (P35368 whole entry): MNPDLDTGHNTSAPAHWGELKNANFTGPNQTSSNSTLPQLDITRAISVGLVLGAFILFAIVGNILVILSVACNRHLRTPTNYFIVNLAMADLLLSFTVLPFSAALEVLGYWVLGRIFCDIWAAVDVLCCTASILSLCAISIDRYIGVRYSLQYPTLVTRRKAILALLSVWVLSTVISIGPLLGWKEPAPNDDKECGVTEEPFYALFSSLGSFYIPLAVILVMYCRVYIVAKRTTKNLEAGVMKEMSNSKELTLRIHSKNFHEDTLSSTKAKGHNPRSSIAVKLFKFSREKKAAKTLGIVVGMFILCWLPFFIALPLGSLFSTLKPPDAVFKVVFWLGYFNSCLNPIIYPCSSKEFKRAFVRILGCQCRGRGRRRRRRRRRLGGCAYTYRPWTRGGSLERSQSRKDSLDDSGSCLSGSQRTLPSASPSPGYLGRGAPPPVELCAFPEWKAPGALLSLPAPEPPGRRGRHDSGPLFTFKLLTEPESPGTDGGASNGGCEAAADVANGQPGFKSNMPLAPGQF
T1 sequence (P31645 whole entry): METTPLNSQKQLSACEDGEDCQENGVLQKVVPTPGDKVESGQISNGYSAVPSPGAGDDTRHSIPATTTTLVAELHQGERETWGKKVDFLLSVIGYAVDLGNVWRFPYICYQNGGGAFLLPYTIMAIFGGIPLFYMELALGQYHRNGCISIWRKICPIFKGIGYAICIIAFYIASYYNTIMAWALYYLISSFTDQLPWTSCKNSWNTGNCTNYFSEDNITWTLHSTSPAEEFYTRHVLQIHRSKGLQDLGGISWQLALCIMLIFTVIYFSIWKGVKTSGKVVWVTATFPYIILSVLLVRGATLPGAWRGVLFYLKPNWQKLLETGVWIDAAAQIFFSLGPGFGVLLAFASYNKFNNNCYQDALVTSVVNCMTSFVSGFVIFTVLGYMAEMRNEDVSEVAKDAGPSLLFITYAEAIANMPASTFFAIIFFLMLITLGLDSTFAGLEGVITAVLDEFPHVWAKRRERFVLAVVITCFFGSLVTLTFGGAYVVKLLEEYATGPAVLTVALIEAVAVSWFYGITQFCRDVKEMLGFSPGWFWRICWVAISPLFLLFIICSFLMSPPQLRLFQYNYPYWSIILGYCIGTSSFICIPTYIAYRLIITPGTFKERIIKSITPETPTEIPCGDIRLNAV
T4 sequence (P35354 18-604): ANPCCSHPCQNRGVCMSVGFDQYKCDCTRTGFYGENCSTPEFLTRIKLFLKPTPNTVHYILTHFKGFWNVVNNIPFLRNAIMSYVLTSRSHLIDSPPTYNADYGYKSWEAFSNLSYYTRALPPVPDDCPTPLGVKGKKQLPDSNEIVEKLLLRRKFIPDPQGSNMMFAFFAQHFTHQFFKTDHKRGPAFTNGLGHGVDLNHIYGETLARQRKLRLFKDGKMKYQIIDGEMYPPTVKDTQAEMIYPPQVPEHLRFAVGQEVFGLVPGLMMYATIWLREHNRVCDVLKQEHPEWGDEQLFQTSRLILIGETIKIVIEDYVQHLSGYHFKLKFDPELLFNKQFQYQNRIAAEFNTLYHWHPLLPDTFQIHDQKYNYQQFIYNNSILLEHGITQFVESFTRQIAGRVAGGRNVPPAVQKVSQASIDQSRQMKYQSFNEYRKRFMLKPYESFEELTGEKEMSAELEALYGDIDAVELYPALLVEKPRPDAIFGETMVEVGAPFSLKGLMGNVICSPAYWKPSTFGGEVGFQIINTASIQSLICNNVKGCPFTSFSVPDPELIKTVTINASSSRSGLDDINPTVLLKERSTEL
T9 sequence (P41145 whole entry): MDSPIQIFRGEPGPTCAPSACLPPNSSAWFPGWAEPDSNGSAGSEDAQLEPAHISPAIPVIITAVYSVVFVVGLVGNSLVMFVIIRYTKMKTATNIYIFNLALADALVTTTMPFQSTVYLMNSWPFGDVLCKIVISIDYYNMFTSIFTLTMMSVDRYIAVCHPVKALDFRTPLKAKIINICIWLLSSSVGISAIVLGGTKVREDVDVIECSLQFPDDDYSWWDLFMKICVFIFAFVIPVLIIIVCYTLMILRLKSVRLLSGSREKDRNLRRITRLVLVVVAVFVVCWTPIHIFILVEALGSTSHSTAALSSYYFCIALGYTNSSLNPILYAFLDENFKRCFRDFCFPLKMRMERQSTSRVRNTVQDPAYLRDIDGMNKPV
T10 sequence (P35372 whole entry): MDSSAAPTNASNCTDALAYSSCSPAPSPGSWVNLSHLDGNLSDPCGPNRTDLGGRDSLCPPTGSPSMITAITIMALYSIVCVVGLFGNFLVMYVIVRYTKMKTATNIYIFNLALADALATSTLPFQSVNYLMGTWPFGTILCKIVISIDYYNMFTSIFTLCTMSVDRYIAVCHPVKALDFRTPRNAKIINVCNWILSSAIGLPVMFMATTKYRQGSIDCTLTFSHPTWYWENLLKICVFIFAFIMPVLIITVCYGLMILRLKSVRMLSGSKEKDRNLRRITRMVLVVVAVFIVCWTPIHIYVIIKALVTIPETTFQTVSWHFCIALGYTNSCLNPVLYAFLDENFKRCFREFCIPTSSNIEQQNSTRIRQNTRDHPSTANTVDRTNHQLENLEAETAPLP

CC[C@@H]1CN2CCc3c([nH]c4cccc(O)c34)[C@@H]2C[C@@H]1/C(=C\OC)C(=O)OC [9-Hydroxycorynantheidine]
Inhibition of radioligand binding, serotonin transporter (serotonin transporter): ~58% | Inhibition of radioligand binding, voltage-gated sodium channels [1]: ~57% | Inhibition of specific radioligand binding, α1D (α1DR): more than 60% | Inhibition of specific radioligand binding, α2B (α2BR): less than 25% | Inhibition of COX2 (COX2): > 70% | Inhibition of specific radioligand binding, α1A (α1AR [2]): more than 60% | Inhibition of specific radioligand binding, α2A (α2AR [3]): less than 25%

CC(C)NCC(O)c1ccc(O)c(O)c1 (stereo not shown) [isoproterenol]
pERK relative to buffer, α2AR-transfected HEK293 [4]: significantly increased pERK | pERK relative to buffer, nontransfected HEK293 ([5]; 1 μM, 5 min): stimulated pERK | pERK-stimulating effect with 100 nM atipamezole cotreatment [5]: not affected | pERK-stimulating effect with 100 nM prazosin cotreatment [5]: not affected

CC(Oc1c(Cl)cccc1Cl)C1=NCCN1 (stereo not shown) [lofexidine]
EC50 (α1AR [6]; EC50, α11, α1AR-Gα11): 112 nM | EC50 (α1AR [6]; EC50, αq, α1AR-Gαq): 95.5 nM | Emax (α1AR [6]; [13]): 76% | Emax (α1AR [6]; [14]): 84%

CC[C@@H]1CN2CC[C@@]3(O)C(=Nc4cccc(OC)c43)[C@@H]2C[C@@H]1/C(=C\OC)C(=O)OC [7-Hydroxymitragynine]
Inhibition of specific radioligand binding, α1B (α1BR): less than 15% | Inhibition of specific radioligand binding, α1D (α1DR): less than 15% | Inhibition of specific radioligand binding, α2B (α2BR): less than 15% | Inhibition of radioligand binding, δ-opioid receptors (δ-opioid receptors): more than 50% | Inhibition of radioligand binding, κ-opioid receptors (κ-opioid receptors): more than 50% | Inhibition of radioligand binding, μ-opioid receptors (μ-opioid receptors): more than 50% | Inhibition of the activity of enzymes tested (any enzyme tested): did not inhibit the activity of any enzyme tested | Inhibition of specific radioligand binding, α1A (α1AR [2]): less than 15% | Inhibition of specific radioligand binding, α2A (α2AR [3]): less than 15%

COc1cc2nc(N3CCN(C(=O)c4ccco4)CC3)nc(N)c2cc1OC [Prazosin, prazosin]
Kd (human α2Rs; read-out: Affinity (Kd) at each of the human α2Rs): ≥ 300 nM | Affinity (Kd) at each of the α1Rs (human α1Rs): single-digit nM or higher affinity | Kd (β1 and β2 adrenoceptors): ≥ 8 µM

CNC[C@H](O)c1ccc(O)c(O)c1 [epinephrine]
Emax (α1AR [6]; [13]): 279%

Brc1c(NC2=NCCN2)ccc2nccnc12 [UK 14, 304 (brimonidine), brimonidine, reference compound]
pERK, nontransfected HEK293 [5]: did not increase pERK | β-arrestin2 recruitment, agonist mode (α2AR [7]): robust α2AR-β-arrestin2 recruitment

CNC[C@H](O)c1cccc(O)c1 [phenylephrine]
pERK, nontransfected HEK293 [5]: robust increases in pERK

Clc1cccc(Cl)c1N=C1NCCN1 [clonidine]
pERK-stimulating effect in Gαq/11 knockout HEK293 cells ([5]; 1 μM, 5 min, vs CRISPR scrambled): abolished | pERK-stimulating effect with 100 nM atipamezole cotreatment [5]: did not affect | pERK-stimulating effect with 100 nM prazosin cotreatment [5]: abolished | Effect on forskolin-stimulated cAMP, human α2AR (α2AR [8]): decreased forskolin-stimulated cAMP production | Effect on forskolin-stimulated cAMP, rat α2AR (rat α2AR [9]): agonist | Effect on forskolin-induced cAMP, rat α2AR in HEK293 (rat α2AR [10]): attenuated forskolin-induced cAMP production | Activation of Gαq or Gα11 via α2ARs (α2AR [11]): no effect | Emax (α1AR [6]; [13]): 100% | Emax (α1AR [6]; [14]): 100% | EC50 (α1A and α1BR): < 100 nM

CCC1(c2cnc[nH]2)Cc2ccccc2C1 [atipamezole]
β-arrestin2 recruitment, agonist mode (α2AR [7]): did not recruit β-arrestin2 | Affinity (Kd) at each of the human α2Rs (human α2Rs): double-digit nM | Kd (human α1Rs; read-out: Affinity (Kd) at each of the α1Rs): ≥ 1000 nM | Kd (β1 and β2 adrenoceptors): > 30 µM | Kb (α2AR [12]): 6.92 nM
